According to US11858919B2, “HDAC1,2 inhibitors” (REGENACY PHARMACEUTICALS, LLC, priority 2018, dated 2024):
Like-named read-outs stand apart in the source and are kept apart here.

What was measured:
HDAC3 = molecular target: T1, HDAC3 (Homo sapiens, UniProt O15379); assay: HDAC enzyme assay, HDAC3 (fluorescence, tripeptide substrate/trypsin); type: biochemical; settings: 0.08 ng/ml enzyme, 17 μM substrate, 10 min preincubation
T1 construct: purchased BPS Biosciences
Experimental: (§1) Compounds for testing were diluted in […] to 50 fold the final concentration and a ten-point three-fold dilution series was made. The compounds were diluted in assay buffer (50 mM HEPES, pH 7.4, 100 mM KCl, 0.001% Tween-20, 0.05% BSA, 20 μM TCEP) to 6-fold their final concentration. The HDAC enzymes (purchased from BPS Biosciences) were diluted to 1.5-fold their final concentration in assay buffer. The tripeptide substrate and trypsin at 0.05 μM final concentration were diluted in assay buffer at 6-fold their final concentration. The final enzyme concentrations used in these assays were 3.3 ng/ml (HDAC1), 0.2 ng/ml (HDAC2) and 0.08 ng/ml (HDAC3). The final substrate concentrations used were 16 μM (HDAC1), 10 μM (HDAC2) and 17 μM (HDAC3).
(§2) Five μl of compounds and 20 μl of enzyme were added to wells of a black, opaque 384 well plate in duplicate. Enzyme and compound were incubated together at room temperature for 10 minutes. Five μl of substrate was added to each well, the plate was shaken for 60 seconds and placed into a Victor 2 microtiter plate reader. The development of fluorescence was monitored for 60 min and the linear rate of the reaction was calculated. The IC50 was determined using Graph Pad Prism by a four parameter curve fit.

HDAC2 = molecular target: T2, HDAC2 (Homo sapiens, UniProt Q92769); assay: HDAC enzyme assay, HDAC2 (fluorescence, tripeptide substrate/trypsin); type: biochemical; settings: 0.2 ng/ml enzyme, 10 μM substrate, 10 min preincubation
T2 construct: purchased BPS Biosciences
T2 sequence (Q92769 whole entry): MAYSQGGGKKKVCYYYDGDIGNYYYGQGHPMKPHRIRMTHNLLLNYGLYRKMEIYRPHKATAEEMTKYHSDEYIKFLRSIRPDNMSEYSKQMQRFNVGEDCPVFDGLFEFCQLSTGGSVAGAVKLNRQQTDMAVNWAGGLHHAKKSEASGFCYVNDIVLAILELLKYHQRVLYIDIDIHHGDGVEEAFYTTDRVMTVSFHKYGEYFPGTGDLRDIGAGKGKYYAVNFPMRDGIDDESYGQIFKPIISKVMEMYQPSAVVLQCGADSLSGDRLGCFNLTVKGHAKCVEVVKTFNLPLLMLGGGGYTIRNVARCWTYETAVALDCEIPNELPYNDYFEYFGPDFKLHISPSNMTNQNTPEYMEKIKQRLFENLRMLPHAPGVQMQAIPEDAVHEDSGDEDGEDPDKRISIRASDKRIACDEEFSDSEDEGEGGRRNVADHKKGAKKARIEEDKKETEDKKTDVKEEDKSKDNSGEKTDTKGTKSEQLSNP
Experimental: as §1, §2

HDAC1 = molecular target: T3, HDAC1 (Homo sapiens, UniProt Q13547); assay: HDAC enzyme assay, HDAC1 (fluorescence, tripeptide substrate/trypsin); type: biochemical; settings: 3.3 ng/ml enzyme, 16 μM substrate, 10 min preincubation
T3 construct: purchased BPS Biosciences
T3 sequence (Q13547 whole entry): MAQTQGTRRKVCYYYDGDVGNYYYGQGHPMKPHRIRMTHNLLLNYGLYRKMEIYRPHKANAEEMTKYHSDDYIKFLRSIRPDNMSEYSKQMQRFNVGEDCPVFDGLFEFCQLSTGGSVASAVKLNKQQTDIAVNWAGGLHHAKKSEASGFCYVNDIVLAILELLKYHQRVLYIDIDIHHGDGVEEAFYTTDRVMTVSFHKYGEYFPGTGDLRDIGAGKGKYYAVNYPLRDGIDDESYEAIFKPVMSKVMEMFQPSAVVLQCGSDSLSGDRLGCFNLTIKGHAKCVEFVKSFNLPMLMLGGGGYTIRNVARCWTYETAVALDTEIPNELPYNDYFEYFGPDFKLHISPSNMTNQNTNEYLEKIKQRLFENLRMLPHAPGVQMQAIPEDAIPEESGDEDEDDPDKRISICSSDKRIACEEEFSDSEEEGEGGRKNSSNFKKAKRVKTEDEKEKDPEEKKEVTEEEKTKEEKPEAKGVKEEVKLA
Experimental: as §1, §2

[1] = Pharmacokinetics in male SD rats (cassette dosing, IV and PO), plasma level by LC/MS/MS; type: in vivo; settings: male SD rat; for bioavailability: dose adjusted PO AUC (5 mg/kg) to IV AUC (1 mg/kg), read-out: F % (oral bioavailability); for CL renal: read-out: IV Clr.
Experimental: Male SD rats were fasted overnight. Compounds of the invention were dissolved in dimethyl acetamide at 10 times the final concentration, then Solutol HS 15 (BASF) was added to a final concentration of 10%. Finally, 80% saline was added and vortexed to achieve a clear solution. For the IV dosing three animals were injected via the foot dorsal vein with 1 mg/kg compound. For the PO dosing 5 mg/kg of compound was delivered by oral gavage. Blood was collected via the tail vein into K2EDTA tubes at 5 minutes, 15 minutes, 30 minutes, 1 hour, 2 hours, 4 hours, 8 hours and 24 hours after dosing. The blood was centrifuged at 2000 g for 5 minutes at 4° C. to obtain plasma. The plasma was extracted with acetonitrile and the level of compound was analyzed by LC/MS/MS. The level of compound in plasma was calculated from a standard curve in rat plasma. The IV clearance (L/h/kg) and area under the curve (h*ng/mL) were calculated using WinNonLin software. The dose adjusted area under the curve for the IV and oral dosing were used to calculate the oral bioavailability.
Pharmacokinetic properties were assessed in a rat cassette dosing experiment. The IV clearance (IV Clr.) is in units of L/hr/kg. The oral maximum plasma concentration (PO Cmax) is in units of ng/ml. The oral plasma half-life (PO T½) is in units of hours. The oral area under the curve (PO AUC) is in units of hours*ng/ml. The fraction absorbed by the oral route (F %) is a percentage of the oral area under the curve to the IV area under the curve, dose adjusted.

[2] = PO 5 mg/kg oral gavage, read-out: PO AUC
[3] = PO 5 mg/kg oral gavage, read-out: PO t1/2

T1 sequence (O15379 whole entry): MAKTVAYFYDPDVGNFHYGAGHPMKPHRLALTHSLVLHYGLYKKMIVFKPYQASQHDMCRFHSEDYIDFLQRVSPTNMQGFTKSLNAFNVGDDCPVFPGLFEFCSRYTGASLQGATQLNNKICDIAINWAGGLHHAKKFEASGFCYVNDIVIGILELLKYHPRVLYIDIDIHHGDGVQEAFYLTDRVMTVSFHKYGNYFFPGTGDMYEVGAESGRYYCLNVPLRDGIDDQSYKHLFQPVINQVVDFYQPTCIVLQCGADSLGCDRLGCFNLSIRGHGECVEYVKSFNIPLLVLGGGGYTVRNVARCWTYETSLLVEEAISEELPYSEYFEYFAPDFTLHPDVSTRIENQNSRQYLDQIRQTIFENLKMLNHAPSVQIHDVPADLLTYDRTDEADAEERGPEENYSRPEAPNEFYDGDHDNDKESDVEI
T1 sequence (Q9Y618 395-489 partner limits assumed): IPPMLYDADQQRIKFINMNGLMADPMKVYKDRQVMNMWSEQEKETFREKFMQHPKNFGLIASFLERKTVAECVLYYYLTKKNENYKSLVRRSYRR

`Nc1ccc(-c2ccccc2)cc1NC(=O)c1ccc2c(c1)ncn2CCN1CCOCC1` [Compound 017] gave an IC50 (HDAC3) of 450 to 460 nM, an IC50 (HDAC2) of 10 to 20 nM and an IC50 (HDAC1) of 1 to 10 nM.

`Nc1ccc(-c2cccs2)cc1NC(=O)c1ccc2[nH]cnc2c1` [Compound 018] showed an IC50 (HDAC3) of 150 to 235 nM, an IC50 (HDAC2) of 20 to 35 nM and an IC50 (HDAC1) of 1 to 10 nM. It also gave an IV clearance ([1]; IV 1 mg/kg) of 0.167 to 8.33 mL/min/kg, an AUC ([1]; IV 1 mg/kg, read-out: IV AUC) of 19600 to 19800 ng·h/mL and a half-life ([1]; IV 1 mg/kg, read-out: IV t1/2) of 600 to 900 min. It also gave a Cmax ([1]; PO 5 mg/kg oral gavage) of 5550 to 5600 ng/mL, an AUC [1, 2] of 81800 to 82000 ng·h/mL and a half-life [1, 3] of 300 to 600 min. The bioavailability [1] was 75 to 85%.

With `Cn1cnc2cc(C(=O)Nc3cc(-c4cccs4)ccc3N)ccc21` [Compound 019] the IC50 (HDAC3) was 690 to 700 nM, the IC50 (HDAC2) was 35 to 40 nM and the IC50 (HDAC1) was 15 to 20 nM.

In the case of `Cc1nc2ccc(C(=O)Nc3cc(-c4cccs4)ccc3N)cc2[nH]1` [Compound 020], the IC50 (HDAC3) is reported as 1300 to 1310 nM, the IC50 (HDAC2) is reported as 25 to 30 nM and the IC50 (HDAC1) is reported as 5 to 10 nM.

In the case of `Nc1ccc(-c2cccs2)cc1NC(=O)c1ccc2c(c1)ncn2CCN1CCOCC1` [Compound 021], the IC50 (HDAC3) is reported as 430 to 440 nM, the IC50 (HDAC2) is reported as 15 to 20 nM and the IC50 (HDAC1) is reported as 5 to 10 nM. It also gave an IV clearance ([1]; IV 1 mg/kg) of 1.67 to 16.7 mL/min/kg, an AUC ([1]; IV 1 mg/kg, read-out: IV AUC) of 3700 to 3800 ng·h/mL and a half-life ([1]; IV 1 mg/kg, read-out: IV t1/2) of 60 to 300 min. For the same compound, the Cmax ([1]; PO 5 mg/kg oral gavage) was 5250 to 5300 ng/mL, the AUC [1, 2] was 21400 ng·h/mL and the half-life [1, 3] was 60 to 300 min. It also gave a bioavailability [1] of 110 to 120%.

In the case of `Nc1ccc(-c2cccs2)cc1NC(=O)c1ccc2ncn(CCN3CCOCC3)c2c1` [Compound 022], the IC50 (HDAC3) is reported as 1210 to 1220 nM, the IC50 (HDAC2) is reported as 1240 to 1250 nM and the IC50 (HDAC1) is reported as 885 to 895 nM.

In the case of `CN(C)CCNc1ccc2cc(C(=O)Nc3cc(-c4cccs4)ccc3N)ncc2c1` [Compound 024], the IC50 (HDAC3) is reported as 15 to 90 nM, the IC50 (HDAC2) is reported as 5 to 10 nM and the IC50 (HDAC1) is reported as < 5 nM. For the same compound, the AUC ([1]; IV 1 mg/kg, read-out: IV AUC) was 20 to 25 ng·h/mL, the CL renal ([1]; IV 1 mg/kg) was < 8.33 mL/min/kg and the half-life ([1]; IV 1 mg/kg, read-out: IV t1/2) was 900 to 1200 min.

Compound `CN(C)CCNc1ccc2cc(C(=O)Nc3cc(-c4cccs4)ccc3N)cnc2c1` [Compound 025] has an IC50 (HDAC3) of 110 to 200 nM, an IC50 (HDAC2) of 15 to 20 nM and an IC50 (HDAC1) of 5 to 15 nM. For the same compound, the AUC ([1]; IV 1 mg/kg, read-out: IV AUC) was 15 to 20 ng·h/mL, the CL renal ([1]; IV 1 mg/kg) was < 8.33 mL/min/kg and the half-life ([1]; IV 1 mg/kg, read-out: IV t1/2) was 60 to 300 min.

`CNCCCOc1ccc2cc(C(=O)Nc3cc(-c4cccs4)ccc3N)cnc2c1` [Compound 026] gave an IC50 (HDAC3) of 85 to 95 nM, an IC50 (HDAC2) of 20 to 25 nM and an IC50 (HDAC1) of 25 to 30 nM.

In the case of `CN1CCN(c2ccc3cc(C(=O)Nc4cc(-c5nccn5C)ccc4N)cnc3c2)CC1` [Compound 027], the IC50 (HDAC3) is reported as > 2000 nM, the IC50 (HDAC2) is reported as > 2000 nM and the IC50 (HDAC1) is reported as > 2000 nM.

`Nc1ccc(-c2cccs2)cc1NC(=O)c1ccc2nc(N3CCNCC3)ccc2c1` [Compound 028] gave an IC50 (HDAC3) of 290 to 300 nM, an IC50 (HDAC2) of 50 to 60 nM and an IC50 (HDAC1) of 50 to 60 nM.

`COCCNc1ccc2cc(C(=O)Nc3cc(-c4cccs4)ccc3N)cnc2c1` [Compound 029] showed an IC50 (HDAC3) of 750 to 760 nM, an IC50 (HDAC2) of 50 to 105 nM and an IC50 (HDAC1) of 15 to 25 nM. The AUC ([1]; IV 1 mg/kg, read-out: IV AUC) was 20 to 25 ng·h/mL, the CL renal ([1]; IV 1 mg/kg) was < 1.67 mL/min/kg and the half-life ([1]; IV 1 mg/kg, read-out: IV t1/2) was 60 to 180 min.

`COCCN(C)c1ccc2cc(C(=O)Nc3cc(-c4cccs4)ccc3N)cnc2c1` [Compound 030] gave an IC50 (HDAC3) of 1200 to 1230 nM, an IC50 (HDAC2) of 155 to 160 nM and an IC50 (HDAC1) of 50 to 55 nM. The AUC ([1]; IV 1 mg/kg, read-out: IV AUC) was 1 to 5 ng·h/mL, the CL renal ([1]; IV 1 mg/kg) was < 1.67 mL/min/kg and the half-life ([1]; IV 1 mg/kg, read-out: IV t1/2) was < 30 min.

In the case of `CN(C)CCN(C)c1ccc2cc(C(=O)Nc3cc(-c4cccs4)ccc3N)cnc2c1` [Compound 031], the IC50 (HDAC3) is reported as 240 to 250 nM, the IC50 (HDAC2) is reported as 15 to 25 nM and the IC50 (HDAC1) is reported as < 5 nM. For the same compound, the AUC ([1]; IV 1 mg/kg, read-out: IV AUC) was 1 to 5 ng·h/mL, the CL renal ([1]; IV 1 mg/kg) was < 3.33 mL/min/kg and the half-life ([1]; IV 1 mg/kg, read-out: IV t1/2) was 30 to 60 min.

For `CN1CCN(c2ccc3cc(C(=O)Nc4cc(-c5cccs5)ccc4N)cnc3c2)CC1` [Compound 032], the IC50 (HDAC3) was 280 to 300 nM, the IC50 (HDAC2) was 25 to 35 nM and the IC50 (HDAC1) was 5 to 10 nM. The AUC ([1]; IV 1 mg/kg, read-out: IV AUC) was < 15 ng·h/mL, the CL renal ([1]; IV 1 mg/kg) was < 8.33 mL/min/kg and the half-life ([1]; IV 1 mg/kg, read-out: IV t1/2) was 30 to 120 min.
